PubChem BioAssay AID1963833 (Molecular Pharmacology Branch, DTP, NCI, 2024)

Test system: 883617-216-R-J1-PDC complex spheroid viability
Test: Anticancer human tumor 883617-216-R-J1-PDC patient-derived bladder carcinoma cell line growth inhibition [POLQ]
Conditions: for IC50: curve of first compound; for viability, T/C: stronger effect = lower value
How it was run: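 Complex spheroid viability model combining PDC tumour cells with endothelial (HUVEC) and MSC stromal cells. Novobiocin, ART-558 or RP6685 were tested singly and in combination with standard and investigational anticancer drugs. Each was titrated in half-log steps from near clinical Cmax, or from 10 microM where Cmax was unknown.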

[1] = second compound 0.0316 µM, first compound 0.0316 µM
[2] = second compound 0.0316 µM, first compound 0.1 µM
[3] = second compound 0.0316 µM, first compound 0.316 µM
[4] = second compound 0.0316 µM, first compound 1 µM
[5] = second compound 0.0316 µM, first compound 3.16 µM
[6] = second compound 0.0316 µM, first compound 10 µM
[7] = second compound 0.1 µM, first compound 0.0316 µM
[8] = second compound 0.1 µM, first compound 0.1 µM
[9] = second compound 0.1 µM, first compound 0.316 µM
[10] = second compound 0.1 µM, first compound 1 µM
[11] = second compound 0.1 µM, first compound 3.16 µM
[12] = second compound 0.1 µM, first compound 10 µM
[13] = second compound 0.316 µM, first compound 0.0316 µM
[14] = second compound 0.316 µM, first compound 0.1 µM
[15] = second compound 0.316 µM, first compound 0.316 µM
[16] = second compound 0.316 µM, first compound 1 µM
[17] = second compound 0.316 µM, first compound 3.16 µM
[18] = second compound 0.316 µM, first compound 10 µM
[19] = second compound 1 µM, first compound 0.0316 µM
[20] = second compound 1 µM, first compound 0.1 µM
[21] = second compound 1 µM, first compound 0.316 µM
[22] = second compound 1 µM, first compound 1 µM
[23] = second compound 1 µM, first compound 3.16 µM
[24] = second compound 1 µM, first compound 10 µM
[25] = second compound 3.16 µM, first compound 0.0316 µM
[26] = second compound 3.16 µM, first compound 0.1 µM
[27] = second compound 3.16 µM, first compound 0.316 µM
[28] = second compound 3.16 µM, first compound 1 µM
[29] = second compound 3.16 µM, first compound 3.16 µM
[30] = second compound 3.16 µM, first compound 10 µM
[31] = second compound 10 µM, first compound 0.0316 µM
[32] = second compound 10 µM, first compound 0.1 µM
[33] = second compound 10 µM, first compound 0.316 µM
[34] = second compound 10 µM, first compound 1 µM
[35] = second compound 10 µM, first compound 3.16 µM
[36] = second compound 10 µM, first compound 10 µM
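Also: spheroids exposed to compounds for seven days before readout.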
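For viability, T/C in this document: 100% = DMSO vehicle control viability.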

**Q.** Which results are given for `COc1cc2cc(C(=O)CCC(=O)O)sc2cc1OC` + Nc1ccc(C#CCN(C(=O)Cc2ncc(C(F)(F)F)cc2C(F)(F)F)c2ccc(F)cc2)nn1?
**A.** IC50 (second compound 0.0316 µM): > 10000 nM; IC50 (second compound 0.1 µM): > 10000 nM; IC50 (second compound 0.316 µM): > 10000 nM; IC50 (second compound 1 µM): > 10000 nM; IC50 (second compound 3.16 µM): > 10000 nM; IC50 (second compound 10 µM): > 10000 nM; viability, T/C [1]: 109%; viability, T/C [2]: 107%; viability, T/C [3]: 123%; viability, T/C [4]: 93.5%; viability, T/C [5]: 105%; viability, T/C [6]: 104%; viability, T/C [7]: 112%; viability, T/C [8]: 90.6%; viability, T/C [9]: 101%; viability, T/C [10]: 95.5%; viability, T/C [11]: 101%; viability, T/C [12]: 107%; viability, T/C [13]: 90.7%; viability, T/C [14]: 101%; viability, T/C [15]: 94.9%; viability, T/C [16]: 100%; viability, T/C [17]: 114%; viability, T/C [18]: 106%; viability, T/C [19]: 97.1%; viability, T/C [20]: 125%; viability, T/C [21]: 108%; viability, T/C [22]: 102%; viability, T/C [23]: 91.5%; viability, T/C [24]: 95.6%; viability, T/C [25]: 114%; viability, T/C [26]: 115%; viability, T/C [27]: 115%; viability, T/C [28]: 83.2%; viability, T/C [29]: 92.5%; viability, T/C [30]: 120%; viability, T/C [31]: 122%; viability, T/C [32]: 128%; viability, T/C [33]: 122%; viability, T/C [34]: 113%; viability, T/C [35]: 155%; viability, T/C [36]: 110%

**Q.** What does the source list for `C=CCn1c(=O)c2cnc(Nc3ccc(N4CCN(C)CC4)cc3)nc2n1-c1cccc(C(C)(C)O)n1` + Cc1cccc(N(C)C(=O)C2C(O)CCN2c2nc(C)cc(C(F)(F)F)c2C#N)c1?
**A.** IC50 (second compound 0.0316 µM): 938 nM; IC50 (second compound 0.1 µM): > 1000 nM; IC50 (second compound 0.316 µM): 896 nM; IC50 (second compound 1 µM): > 1000 nM; IC50 (second compound 3.16 µM): > 1000 nM; IC50 (second compound 10 µM): > 1000 nM; viability, T/C (second compound 0.0316 µM, first compound 0.00316 µM): 106%; viability, T/C (second compound 0.0316 µM, first compound 0.01 µM): 101%; viability, T/C [1]: 96.7%; viability, T/C [2]: 86.6%; viability, T/C [3]: 92.7%; viability, T/C [4]: 47.1%; viability, T/C (second compound 0.1 µM, first compound 0.00316 µM): 93.5%; viability, T/C (second compound 0.1 µM, first compound 0.01 µM): 93.3%; viability, T/C [7]: 95.4%; viability, T/C [8]: 109%; viability, T/C [9]: 86.2%; viability, T/C [10]: 53%; viability, T/C (second compound 0.316 µM, first compound 0.00316 µM): 88.2%; viability, T/C (second compound 0.316 µM, first compound 0.01 µM): 99.3%; viability, T/C [13]: 102%; viability, T/C [14]: 98.8%; viability, T/C [15]: 90.8%; viability, T/C [16]: 45.5%; viability, T/C (second compound 1 µM, first compound 0.00316 µM): 97.7%; viability, T/C (second compound 1 µM, first compound 0.01 µM): 99%; viability, T/C [19]: 108%; viability, T/C [20]: 112%; viability, T/C [21]: 81.9%; viability, T/C [22]: 53.2%; viability, T/C (second compound 3.16 µM, first compound 0.00316 µM): 104%; viability, T/C (second compound 3.16 µM, first compound 0.01 µM): 108%; viability, T/C [25]: 97.6%; viability, T/C [26]: 93.6%; viability, T/C [27]: 100%; viability, T/C [28]: 53.4%; viability, T/C (second compound 10 µM, first compound 0.00316 µM): 102%; viability, T/C (second compound 10 µM, first compound 0.01 µM): 108%; viability, T/C [31]: 119%; viability, T/C [32]: 99%; viability, T/C [33]: 107%; viability, T/C [34]: 54.3%

**Q.** Which results are given for `CC1COCCN1c1cc(-c2ccnn2C)c2ccnc(-c3ccn[nH]3)c2n1` (stereo unspecified) + Cc1cccc(N(C)C(=O)C2C(O)CCN2c2nc(C)cc(C(F)(F)F)c2C#N)c1?
**A.** IC50 (second compound 0.0316 µM): 205 nM; IC50 (second compound 0.1 µM): 291 nM; IC50 (second compound 0.316 µM): 273 nM; IC50 (second compound 1 µM): 257 nM; IC50 (second compound 3.16 µM): 204 nM; IC50 (second compound 10 µM): 334 nM; viability, T/C [1]: 89.1%; viability, T/C [2]: 61.4%; viability, T/C [3]: 43.2%; viability, T/C [4]: 34%; viability, T/C [5]: 31.7%; viability, T/C [6]: 29.4%; viability, T/C [7]: 72.7%; viability, T/C [8]: 59.1%; viability, T/C [9]: 53.2%; viability, T/C [10]: 35.7%; viability, T/C [11]: 29.9%; viability, T/C [12]: 34.7%; viability, T/C [13]: 83.6%; viability, T/C [14]: 63.1%; viability, T/C [15]: 48%; viability, T/C [16]: 39.3%; viability, T/C [17]: 32.9%; viability, T/C [18]: 30.9%; viability, T/C [19]: 83.2%; viability, T/C [20]: 66.1%; viability, T/C [21]: 48.1%; viability, T/C [22]: 32.1%; viability, T/C [23]: 32.6%; viability, T/C [24]: 30.3%; viability, T/C [25]: 72%; viability, T/C [26]: 60.6%; viability, T/C [27]: 43.9%; viability, T/C [28]: 32.9%; viability, T/C [29]: 33%; viability, T/C [30]: 30.7%; viability, T/C [31]: 96.7%; viability, T/C [32]: 60%; viability, T/C [33]: 58.1%; viability, T/C [34]: 37.9%; viability, T/C [35]: 38.9%; viability, T/C [36]: 28.2%
